The text below walks through data of patent US20080221195A1, “1,2-DIARYLACETYLENE DERIVATIVES OF ACYLTRYPTOPHANOLS” (priority 2006, published 2008).

The target in this assay is T1, human FSH receptor (Homo sapiens, UniProt P23945).
T1 construct: expressed in transfected cells; host or cells: CHO cells (hFSHR clone 16)
T1 sequence (P23945 18-695): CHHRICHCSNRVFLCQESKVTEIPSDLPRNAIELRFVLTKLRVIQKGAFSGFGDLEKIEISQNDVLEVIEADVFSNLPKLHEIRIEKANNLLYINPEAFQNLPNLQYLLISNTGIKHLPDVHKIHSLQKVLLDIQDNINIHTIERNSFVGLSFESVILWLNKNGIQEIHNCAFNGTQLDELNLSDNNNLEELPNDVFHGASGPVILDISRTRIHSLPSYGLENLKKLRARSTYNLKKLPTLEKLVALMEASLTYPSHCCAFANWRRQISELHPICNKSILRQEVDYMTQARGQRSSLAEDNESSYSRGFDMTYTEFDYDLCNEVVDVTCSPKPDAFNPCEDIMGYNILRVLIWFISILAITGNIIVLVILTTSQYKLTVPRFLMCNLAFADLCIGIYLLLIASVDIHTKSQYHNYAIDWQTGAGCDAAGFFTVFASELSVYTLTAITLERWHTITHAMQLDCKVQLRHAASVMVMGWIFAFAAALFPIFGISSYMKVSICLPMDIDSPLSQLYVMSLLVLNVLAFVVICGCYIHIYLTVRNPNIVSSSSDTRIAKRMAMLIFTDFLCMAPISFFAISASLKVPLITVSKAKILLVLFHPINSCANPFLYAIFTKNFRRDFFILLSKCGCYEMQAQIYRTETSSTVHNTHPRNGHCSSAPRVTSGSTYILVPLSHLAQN
The experiment in a line: HTRF assay for measuring cAMP in cells (FSH-antagonistic effect). The assay is classed as cell-based. The settings on record: hFSHR clone 16 cells (CHO cells stably transfected with the human FSH receptor), in the presence of 1e-9 mol/l hFSH, 37° C. for 2 h. Here is the method:
HTRF Assay for Measuring cAMP in Cells
The method is based on a competitive immunoassay between native cAMP, which has been produced by the cells, and cAMP which is labelled with cAMPD2 conjugate. The tracer binding was visualized by a monoclonal antibody, anti-cAMP labelled with cryptate [HTRF=homogeneous time-resolved fluorescence].
The specific signal is inversely proportional to the cAMP concentration of the samples employed.
The 665 nm/620 nm fluorescence ratio was evaluated.
Materials used: 96-well plates for the tissue culture, 96-well plates with black edge and black base (e.g. Fluotrac 600 from Greiner), 96-well plates for the substance dilutions of polypropylene and cAMP Femtomolar (4000 wells Kit, CIS Bio International # 62AM5PEJ).
Reagent used: BSA (bovine serum albumin) Fraction V protease-free, IBMX (3-isobutyl-1-methylxanthine), hFSH (human follicle stimulating hormone), Triton X-100 analytical grade, potassium fluoride analytical grade, G 418 (Geneticin) and Accutase.
Buffer 1 (washing and testing buffer) contained PBS, 1 mM CaCl2, 1 mM MgCl2, 0.2% glucose; 0.1% BSA, 1 mM IBMX.
Buffer 2 (2× lysis buffer) contained 1% Triton X-100 in PBS (without CaCl2 and MgCl2).
Buffer 3 (assay buffer) contained 50 mM potassium phosphate buffer (pH 7.0); 800 mM potassium fluoride; 0.2% BSA (always added fresh).
On day 1, the cells were seeded in 96-well plates (3×10^4 cells per well hFSHR clone 16 cells (CHO cells stably transfected with the human FSH receptor in 150 μl of medium). The next day, test substance dilutions were made up. For this purpose, all the substances were diluted in ice-cold buffer 1 (with or without hFSH), and the substance dilutions were placed on ice until applied to the cells. The cell supernatant was then aspirated off, and the cells were washed 2× with 200 μl of buffer 1. The cells were treated with 60 μl of the appropriate substance concentrations at 37° C. for 2 h. The cells were then lysed with 60 μl of buffer 2 (put onto the supernatant) (on a plate shaker at RT for 30 min). The test conjugates (cAMP-D2 and anti-cAMP cryptate, CIS Bio) were diluted in buffer 3 in accordance with the manufacturers' information. The actual mixture for measurement was pipetted into a black 96-well plate (in each case 15 μl of the cell lysate diluted with 35 μl of buffer 1; firstly 25 μl of cAMP-D2 conjugate were pipetted and, after 10 min, 25 μl of the anti-cAMP cryptate were added). This is followed by incubation at RT for 90 minutes. The measurement was carried out in a PheraStar (BMG).
Dose-effect curve (hFSH) for the human receptor: 1e-8, 3e-9, 1e-9, 3e-10, 1e-10, 3e-11, 1e-11, 3e-12 mol/l.
The test substances were employed in suitable dilutions in the absence (test for agonism) and in the presence of 1e-9 mol/l hFSH.
The values of the well ratio were averaged and then entered directly in SigmaPlot versus the concentrations. The maximum and minimum values were determined for each plate, and half the difference is to be regarded as IC50.
On the technique in general: In TR-FRET formats the signal depends on donor and acceptor labels being close together.
As to `CC(C)Oc1ccc(C#Cc2ccc3c(c2)CCNC3=O)cc1C(=O)N[C@@H](CO)Cc1c[nH]c2ccccc12` [Example 154, N-[(R)-1-Hydroxymethyl-2-(1H-indol-3-yl)-ethyl]-2-isopropoxy-5-(1-oxo-1,2,3,4-tetrahydro-isoquinolin-6-ylethynyl)-benzamide], the IC50 (in general, the point on the concentration scale where inhibition reaches its midpoint) amounted to 6 nM.

Consider `CC(C)Oc1ccc(C#Cc2ccc(C#N)cc2)cc1C(=O)N[C@@H](CO)Cc1c[nH]c2ccccc12` [Example 110, 5-(4-Cyano-phenylethynyl)-N-[(R)-1-hydroxymethyl-2-(1H-indol-3-yl)-ethyl]-2-isopropoxy-benzamide], for which the IC50 amounted to 350 nM.

As for `CC(C)Oc1ccc(C#Cc2ccc3c(c2)C(=O)NC3=O)cc1C(=O)N[C@@H](CO)Cc1c[nH]c2ccccc12` [Example 156, 5-(1,3-Dioxo-2,3-dihydro-1H-isoindol-5-ylethynyl)-N-[(R)-1-hydroxymethyl-2-(1H-indol-3-yl)-ethyl]-2-isopropoxy-benzamide], the IC50 is 15 nM.

As to `CC(C)Oc1ccc(C#Cc2ccc(OCCN(C)C)cc2)cc1C(=O)N[C@@H](CO)Cc1c[nH]c2ccccc12` [Example 103, 5-[4-(2-Dimethylamino-ethoxy)-phenylethynyl]-N-[(R)-1-hydroxymethyl-2-(1H-indol-3-yl)-ethyl]-2-isopropoxy-benzamide], the IC50 turned out to be 1300 nM.

Regarding `CC(C)Oc1ccc(C#Cc2cccc(CN3CCNCC3)c2)cc1C(=O)N[C@@H](CO)Cc1c[nH]c2ccccc12` [Example 141, N-[(R)-1-Hydroxymethyl-2-(1H-indol-3-yl)-ethyl]-2-isopropoxy-5-(3-piperazin-1-ylmethyl-phenylethynyl)-benzamide], the IC50 was 2000 nM.

Regarding `CC(C)Oc1ccc(C#Cc2ccc3c(c2)C(=O)NC3)cc1C(=O)N[C@@H](CO)Cc1c[nH]c2ccccc12` [Example 155, N-[(R)-1-Hydroxymethyl-2-(1H-indol-3-yl)-ethyl]-2-isopropoxy-5-(3-oxo-2,3-dihydro-1H-isoindol-5-ylethynyl)-benzamide], the IC50 is 15 nM.

`CC(C)Oc1ccc(C#Cc2ccccc2C(F)(F)F)cc1C(=O)N[C@@H](CO)Cc1c[nH]c2ccccc12` [Example 119, N-[(R)-2-Hydroxy-1-(1H-indol-3-ylmethyl)-ethyl]-2-isopropoxy-5-(2-trifluoromethyl-phenylethynyl)-benzamide]: the IC50 worked out at 25 nM.

Take `CC(C)Oc1ccc(C#Cc2ccsc2)cc1C(=O)N[C@@H](CO)Cc1c[nH]c2ccccc12` [Example 100, N-[(R)-2-Hydroxy-1-(1H-indol-3-ylmethyl)-ethyl]-2-isopropoxy-5-thiophen-3-ylethynyl-benzamide]: the IC50 was found to be 70 nM.

For `CC(C)Oc1ccc(C#Cc2ccc3[nH]ncc3c2)cc1C(=O)N[C@@H](CO)Cc1c[nH]c2ccccc12` [Example 113, N-[(R)-2-Hydroxy-1-(1H-indol-3-ylmethyl)-ethyl]-5-(1H-indazol-5-ylethynyl)-2-isopropoxy-benzamide], the IC50 turned out to be 25 nM.

With `CC(C)Oc1ccc(C#Cc2cncc(C3=NNC(=O)C3)c2)cc1C(=O)N[C@@H](CO)Cc1c[nH]c2ccccc12` [Example 66, N—[(R)-1-Hydroxymethyl-2-(1H-indol-3-yl)-ethyl]-2-isopropoxy-5-[5-(5-oxo-4,5-dihydro-1H-pyrazol-3-yl)-pyridin-3-ylethynyl]-benzamide], the IC50 was determined as 10 nM.

With `CC(C)Oc1ccc(C#Cc2ccccc2CC(=O)O)cc1C(=O)N[C@@H](CO)Cc1c[nH]c2ccccc12` [Example 58, (2-{3-[(R)-1-Hydroxymethyl-2-(1H-indol-3-yl)-ethylcarbamoyl]-4-isopropoxy-phenylethynyl}-phenyl)-acetic acid], the IC50 turned out to be 2500 nM.

For the compound `CC(C)Oc1ccc(C#Cc2cncnc2)cc1C(=O)N[C@@H](CO)Cc1c[nH]c2ccccc12` [Example 46, N-[(R)-1-Hydroxymethyl-2-(1H-indol-3-yl)-ethyl]-2-isopropoxy-5-pyrimidin-5-ylethynyl-benzamide], the IC50 stood at 150 nM.

As for `Cc1ccc(C#Cc2ccc(OC(C)C)c(C(=O)N[C@@H](CO)Cc3c[nH]c4ccccc34)c2)nc1` [Example 94, N-[(R)-1-Hydroxymethyl-2-(1H-indol-3-yl)-ethyl]-2-isopropoxy-5-(5-methyl-pyridin-2-ylethynyl)-benzamide], the IC50 worked out at 80 nM.

As to `CC(C)Oc1ccc(C#Cc2cncc(C(N)=O)c2)cc1C(=O)N[C@@H](CO)Cc1c[nH]c2ccccc12` [Example 97, 5-{3-[(R)-1-Hydroxymethyl-2-(1H-indol-3-yl)-ethylcarbamoyl]-4-isopropoxy-phenylethynyl}-nicotinamide], the IC50 turned out to be 15 nM.

In the case of `CC(C)Oc1ccc(C#Cc2ccc(-c3cc[nH]n3)cc2)cc1C(=O)N[C@@H](CO)Cc1c[nH]c2ccccc12` [Example 142, N-[(R)-2-Hydroxy-1-(1H-indol-3-ylmethyl)-ethyl]-2-isopropoxy-5-[4-(1H-pyrazol-3-yl)-phenylethynyl]-benzamide], the IC50 amounted to 10 nM.

In the case of `CC(C)Oc1ccc(C#Cc2cccc(C(=O)NCCS(N)(=O)=O)c2)cc1C(=O)N[C@@H](CO)Cc1c[nH]c2ccccc12` [Example 167, N-[(R)-1-Hydroxymethyl-2-(1H-indol-3-yl)-ethyl]-2-isopropoxy-5-[3-(2-sulfamoyl-ethylcarbamoyl)-phenylethynyl]-benzamide], the IC50 amounted to 23 nM.

Take `CC(C)Oc1ccc(C#Cc2ccc(C3(O)CCNCC3)cc2)cc1C(=O)N[C@@H](CO)Cc1c[nH]c2ccccc12` [Example 106, N-[(R)-1-Hydroxymethyl-2-(1H-indol-3-yl)-ethyl]-5-[4-(4-hydroxy-piperidin-4-yl)-phenylethynyl]-2-isopropoxy-benzamide]: the IC50 worked out at 4000 nM.

For `CC(C)Oc1ccc(C#Cc2ccc3ccccc3c2)cc1C(=O)N[C@@H](CO)Cc1c[nH]c2ccccc12` [Example 52, N-[(R)-1-Hydroxymethyl-2-(1H-indol-3-yl)-ethyl]-2-isopropoxy-5-naphthalen-2-ylethynyl-benzamide], the IC50 worked out at 80 nM.

In the case of `CC(C)Oc1ccc(C#Cc2cccc(S(N)(=O)=O)c2)cc1C(=O)N[C@@H](CO)Cc1c[nH]c2ccccc12` [Example 123, N-[(R)-2-Hydroxy-1-(1H-indol-3-ylmethyl)-ethyl]-2-isopropoxy-5-(3-sulfamoyl-phenylethynyl)-benzamide], the IC50 came to 250 nM.

With `Cc1ccc(C)c(C#Cc2ccc(OC(C)C)c(C(=O)N[C@@H](CO)Cc3c[nH]c4ccccc34)c2)c1` [Example 48, 5-(2,5-Dimethyl-phenylethynyl)-N-[(R)-1-hydroxymethyl-2-(1H-indol-3-yl)-ethyl]-2-isopropoxy-benzamide], the IC50 worked out at 30 nM.

As for `CC(C)Oc1ccc(C#Cc2ccc3oc(C(=O)O)cc3c2)cc1C(=O)N[C@@H](CO)Cc1c[nH]c2ccccc12` [Example 127, 5-{3-[(R)-1-Hydroxymethyl-2-(1H-indol-3-yl)-ethylcarbamoyl]-4-isopropoxy-phenylethynyl}-benzofuran-2-carboxylic acid], the IC50 was 90 nM.
